Assays:
[1] = test system: malignant prostate epithelial cells (RWPE-2); assay: Microarray gene expression profile (Affymetrix Human Genome U133A) after lunasin treatment; type: cell-based
Protocol: (§1) Rostate epithelial cells, RWPE-1 (normal) and RWPE-2 (malignant) were cultivated in the Keratinocyte-Serum free medium with 5 ng/ml rEGF and 0.05 mg/ml bovine pituitary extract. Cells were grown to 70% confluence, after which, cells were harvested and transferred to a 150 mm^2 plate at a cell density of 1×10^7 cells/ml. Lunasin peptide was added to a final concentration of 2 μM. The cells were incubated for 24 hours after lunasin treatment. […] RWPE-1 and RWPE-2 cells that were not treated with lunasin served as negative controls.
(§2) Microarrray analysis. Total RNA from each treatment was isolated by Trizol (Invitrogen, Carlsbad, Calif.). The cDNA used in microarray analysis was synthesized from 10 μg of total RNA using the SuperScript Choice system (Invitrogen). The cDNA was then transcribed in vitro in the presence of biotin-labeled nucleotide triphophates using T7 RNA polymerase after phenol-chloroform extraction and ethanol precipitation. cRNA was purified using the RNeasy mini kit (Qiagen) and fragmented at 94° C. for 30 min in the buffer containing 0.2 M Tris-acetate (pH 8.1) 0.5 M potassium acetate, and 0.15 M magnesium acetate. Fragmented cRNA was hybridized overnight at 45° C. to the human genome U133A Genechips (Affymetrix) representing approximately 22,215 transcripts. Hybridization was then detected using a confocal laser scanner (Affymetrix). The gene expression levels of samples were normalized and analyzed using RMA analysis (Irizarry et al., 2003).

[2] = test system: normal prostate epithelial cells (RWPE-1); assay: as above; type: cell-based
Protocol: as §1, §2

[3] = test system: THBS1, PRKAR1A, TOB1, HIF1A mRNA in RWPE-1 and RWPE-2 cells; assay: Real-time RT-PCR verification of selected genes; type: cell-based, human; conditions: RWPE-1 and RWPE-2 treated with 2 microMoles lunasin; normalized to β-actin
Protocol: HIFIA-hypoxia-inducible factor 1, alpha subunit; PRKARIA-protein kinase, cAMP-dependent, regulatory, type I, alpha; TOB 1-transducer of ERBB2, 1; THSB 1-thrombospondin 1
Quantitative PCR. To confirm microarray data, the total RNA prepared for microarray analysis was used for RT-PCR analysis of selected genes. The cDNA used for quantitative PCR was synthesized from 3 μg of total RNA using the SuperScript First-Strand Synthesis for RT-PCR kit (Invitrogen), following manufacturer's recommendations. The cDNA was diluted 4-fold and 2 μl of cDNA was added to the quantitative PCR reaction using FAM-labeled TaqMan probes purchased from Applied Biosystems. The quantitative PCR reactions were performed in triplicate using a PRISM® ABI 7900HT Sequence Detection System (Applied Biosystems) and the expression of the β-actin gene (BACT) was used for normalization. Changes in expression were calculated using relative quantification as follows: ΔΔCt=ΔCtq−ΔCtcb; where Ct=the cycle number at which amplification rises above the background threshold, ΔCt=the change in Ct between two test samples, q=the target gene, and cb=the calibrator gene. Gene expression is then calculated as 2^−ΔΔ^Ct (Applied Biosystems).

[4] = test system: C3H 10T1/2 mouse embryo fibroblast cells; conditions: lunasin added exogenously at nanomolar concentrations; cited from earlier work
[5] = test system: female SENCAR mice; conditions: topical application; cited from earlier work
[6] = test system: E1A-transfected C3H10T1/2 cells; conditions: cited from earlier work
[7] = test system: E1A-transfected mouse fibroblast NIH 3T3 cells; conditions: E1A-transfected NIH 3T3 cells; cited from earlier work
[8] = test system: p21/WAF1/Cip1 protein in cells transfected by the E1A oncogene; conditions: not in untransfected control cells; cited from earlier work
[9] = target: deacetylated histone H4 (Homo sapiens, UniProt P62805); conditions: chemically synthesized lunasin; cited from earlier work
[10] = test system: nucleus; conditions: after 18 hours of incubation; cited from earlier work
[11] = test system: PC3 prostate cancer cells; conditions: PC3 prostate cancer cells treated with genistein; cited from earlier work
[12] = test system: normal prostate epithelial cells; conditions: cited from earlier work
[13] = test system: prostate cancer cell lines; conditions: cited from earlier work
[14] = RWPE-1, 24 hour exposure to 2 micromolar lunasin

lunasin
genes down-regulated ([1]; RWPE-2, 24 h lunasin): No genes were down-regulated | number of genes up-regulated (greater than twofold) ([1]; RWPE-2 malignant cells, 24 h exposure to lunasin peptide): 2 genes | genes down-regulated ([2]; RWPE-1, 24 h lunasin): No genes were down-regulated | Fold-change BNIP3, NIP3 (BCL2/adenovirus E1B 19 kDa interacting prot. 3) [2, 14]: 2.05 | Fold-change BUB1B, BUBR1 [2, 14]: 2.23 | Fold-change ERBB2IP, ERBIN (erbb2 interacting protein) [2, 14]: 2.23 | Fold-change MAD2L1 (MAD2 mitotic arrest deficient-like 1) [2, 14]: 2.12 | Fold-change PORIMIN (pro-oncosis receptor inducing membrane injury gene) [2, 14]: 2.26 | Fold-change PRKAR1A, PKA (protein kinase, cAMP-dependent, regulatory, type I, alpha) [2, 14]: 2.45 | Fold-change PRKCL2, PRK2 (protein kinase C-like 2) [2, 14]: 2.33 | Fold-change PSMC6 (proteasome 26S subunit, ATPase, 6) [2, 14]: 2.58 | Fold-change RANBP2 (RAN binding protein 2) [2, 14]: 2.36 | Fold-change SMURF2 (E3 ubiquitin ligase SMURF2) [2, 14]: 2.29 | Fold-change SPTLC1 (serine palmitoyltransferase, long chain base subunit 1) [2, 14]: 2.12 | Fold-change THBS1, TSP1 (thrombospondin 1) [2, 14]: 2.05 | Fold-change TOB1 (transducer of ERBB2, 1) [2, 14]: 2.32 | Fold-change TTK (TTK protein kinase) [2, 14]: 2.08 | Fold-change UBE1C (ubiquitin-activating enzyme E1C) [2, 14]: 2.15 | Fold-change USP1 (ubiquitin specific protease 1) [2, 14]: 2.23 | total number of genes with a greater than twofold change in expression ([2]; RWPE-1 and RWPE-2 together, of up to 22,215 genes screened, 24 h lunasin): 123 genes | number of genes up-regulated (greater than twofold) ([2]; RWPE-1 normal cells, 24 h exposure to lunasin peptide): 121 genes | BTB (POZ) containing domain 1 (ABTB1 or BPOZ) gene regulation (microarray) ([2]; microarray, lunasin treatment): up-regulated | SP3 gene regulation (microarray) ([2]; microarray, lunasin treatment): up-regulated | connexin 43 gap junction protein expression (microarray) ([2]; microarray, lunasin treatment): up-regulates | cyclin D1 regulation (microarray) ([2]; microarray, lunasin treatment): do not show down regulation | hypoxia-inducible factor-1α (HIF1-A) gene regulation (microarray) ([2]; microarray, lunasin treatment): up-regulated | p21/WAF1/Cip1 transcript regulation (microarray) ([2]; microarray, lunasin treatment): did not show up-regulation | real-time RT-PCR mRNA level changes of THBS1, PRKAR1A, TOB1, HIF1A [3]: consistent with the microarray data | suppression of chemical carcinogen-induced (DMBA, MCA) foci formation [4]: Significant suppression | skin tumorigenesis [5]: inhibited skin tumorigenesis | apoptosis induction [6]: induce apoptosis | foci formation [7]: suppress foci formation | p21/WAF1/Cip1 protein levels [8]: increased by five fold | binding to histone in vitro [9]: preferentially binds deacetylated histone H4 | subcellular localization [10]: localize in the nucleus

O=c1c(-c2ccc(O)cc2)coc2cc(O)cc(O)c12 [genistein]
gene expression regulation (microarray) [11]: regulates the expression of genes that are involved in control of cell growth, cell cycle, apoptosis, cell signaling, angiogenesis, tumor cell invasion and metastasis

B1: BBI: soybean derived serine protease inhibitor with anti-carcinogenic activity (protein, UniProt P01055 40-110, looked up)
Bowman-Birk type proteinase …: DDESSKPCCDQCACTKSNPPQCRCSDMRLNSCHSACKSCICALSYPAQCFCVDITDFCYEPCKPSEDDKEN
effect on normal prostate epithelial cells [12]: no effect | growth, invasion and clonogenic survival of prostate cancer cell lines [13]: inhibited the growth, invasion and clonogenic survival

Source: patent publication US7829277B2, “Methods for identifying compounds that suppress chemically-induced carcinogenesis” (The Regents of the University of California, priority 2004, dated 2010)
